The text below walks through data of US20210214354A1, “IMIDAZOQUINOLINE COMPOUNDS AND USES THEREOF” (Birdie Biopharmaceuticals, Inc., priority 2018, published 2021).

Like-named read-outs stand apart in the source and are kept apart here.

The target of one series is T1, hTLR7 (Homo sapiens, UniProt Q9NYK1).
T1 construct: expressed in transfected cells; host or cells: HEK-Blue hTLR7 cells (HEK293-derived SEAP reporter line; own knowledge: commercial line stably transfected with the human TLR7 gene)
T1 sequence (Q9NYK1 27-1049): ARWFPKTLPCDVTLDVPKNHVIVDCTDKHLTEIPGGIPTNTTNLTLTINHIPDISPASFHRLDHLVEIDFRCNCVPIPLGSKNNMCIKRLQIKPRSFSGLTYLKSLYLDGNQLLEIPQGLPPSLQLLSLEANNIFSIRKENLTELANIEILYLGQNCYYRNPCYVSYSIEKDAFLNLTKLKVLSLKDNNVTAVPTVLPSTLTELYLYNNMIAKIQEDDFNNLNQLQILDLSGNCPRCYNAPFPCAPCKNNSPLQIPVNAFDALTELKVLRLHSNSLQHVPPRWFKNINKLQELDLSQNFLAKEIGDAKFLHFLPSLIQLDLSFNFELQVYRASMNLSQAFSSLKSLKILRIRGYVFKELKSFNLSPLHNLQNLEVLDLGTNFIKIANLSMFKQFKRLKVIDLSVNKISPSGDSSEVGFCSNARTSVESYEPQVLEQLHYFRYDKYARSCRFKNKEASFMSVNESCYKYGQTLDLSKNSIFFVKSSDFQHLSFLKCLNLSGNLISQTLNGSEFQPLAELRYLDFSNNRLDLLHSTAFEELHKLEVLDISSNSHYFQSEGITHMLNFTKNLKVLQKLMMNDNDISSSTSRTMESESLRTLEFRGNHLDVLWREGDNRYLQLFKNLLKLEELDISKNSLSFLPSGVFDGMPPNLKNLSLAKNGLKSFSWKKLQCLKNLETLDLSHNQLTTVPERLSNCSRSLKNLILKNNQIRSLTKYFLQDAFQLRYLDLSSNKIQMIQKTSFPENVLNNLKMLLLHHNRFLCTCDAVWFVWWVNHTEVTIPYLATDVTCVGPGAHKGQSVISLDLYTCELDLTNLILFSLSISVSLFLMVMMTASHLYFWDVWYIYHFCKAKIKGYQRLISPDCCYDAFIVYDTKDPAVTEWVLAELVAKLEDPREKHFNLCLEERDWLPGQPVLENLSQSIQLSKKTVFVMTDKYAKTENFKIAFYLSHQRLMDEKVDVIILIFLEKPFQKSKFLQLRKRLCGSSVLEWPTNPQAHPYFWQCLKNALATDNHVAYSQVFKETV
As to the kind of experiment: TLR7/8 agonist potency assay in HEK-Blue hTLR7 cells (SEAP reporter). Type of series: cell-based. The following applies: about 16 hrs incubation, SEAP at 635 nm; for EC50: read-out: TLR7 Agonistic EC50 (converted). The protocol: HEK-Blue TLR7 cells can serve to measure the bioactivity of TLR7 through the secretion of embryonic alkalinephosphatase (SEAP) upon NF-κB activation following TLR7 stimulation. Water was used as negative control. After about 16 hrs incubation at 37° C. in 5% CO2, the SEAP was determined by using a spectrophotometer at 635 nm.
(§1) The dose-response curves were fit with four parameter logistic curve (SigmaPlot, version 9.0).

The target of the next series is T2, hTLR8 (Homo sapiens, UniProt Q9NR97).
T2 construct: expressed in transfected cells; host or cells: HEK-Blue hTLR8 cells (HEK293-derived SEAP reporter line; own knowledge: commercial line stably transfected with the human TLR8 gene)
T2 sequence (Q9NR97 27-1041): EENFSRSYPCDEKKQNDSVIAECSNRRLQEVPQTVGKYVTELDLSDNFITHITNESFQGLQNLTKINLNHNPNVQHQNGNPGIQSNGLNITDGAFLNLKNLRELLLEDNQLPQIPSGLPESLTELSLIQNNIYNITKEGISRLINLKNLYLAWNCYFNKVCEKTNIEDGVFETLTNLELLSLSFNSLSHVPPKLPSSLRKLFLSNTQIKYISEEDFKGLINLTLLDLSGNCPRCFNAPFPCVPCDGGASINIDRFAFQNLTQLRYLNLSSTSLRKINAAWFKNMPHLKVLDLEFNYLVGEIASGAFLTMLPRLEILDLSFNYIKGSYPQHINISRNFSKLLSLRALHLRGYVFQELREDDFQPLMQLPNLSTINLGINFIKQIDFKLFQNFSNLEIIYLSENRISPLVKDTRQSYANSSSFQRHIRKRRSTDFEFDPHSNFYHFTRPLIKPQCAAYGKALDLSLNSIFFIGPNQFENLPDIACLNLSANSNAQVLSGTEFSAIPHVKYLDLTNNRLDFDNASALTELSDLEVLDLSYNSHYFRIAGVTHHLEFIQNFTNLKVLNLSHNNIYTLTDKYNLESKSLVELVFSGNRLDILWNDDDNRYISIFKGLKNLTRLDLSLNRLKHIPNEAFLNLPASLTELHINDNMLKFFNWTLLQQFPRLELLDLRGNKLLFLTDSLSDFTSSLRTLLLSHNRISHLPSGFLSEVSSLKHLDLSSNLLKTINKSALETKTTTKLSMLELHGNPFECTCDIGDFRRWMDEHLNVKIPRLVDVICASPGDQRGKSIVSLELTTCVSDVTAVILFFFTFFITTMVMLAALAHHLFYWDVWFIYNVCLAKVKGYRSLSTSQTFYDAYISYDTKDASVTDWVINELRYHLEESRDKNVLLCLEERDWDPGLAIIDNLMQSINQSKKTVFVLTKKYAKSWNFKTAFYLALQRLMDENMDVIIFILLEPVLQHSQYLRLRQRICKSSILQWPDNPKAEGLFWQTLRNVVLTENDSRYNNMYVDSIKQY
As to the kind of experiment: TLR7/8 agonist potency assay in HEK-Blue hTLR8 cells (SEAP reporter). Format: cell-based. Conditions: about 16 hrs incubation, SEAP at 635 nm, read-out: TLR8 Agonistic EC50 (converted). The procedure:
HEK-Blue hTLR8 cells can serve to measure the bioactivity of TLR8 through the secretion of embryonic alkaline phosphatase (SEAP) upon NF-κB activation following TLR8 stimulation. Water was used as negative control. After about 16 hrs incubation at 37° C. in 5% CO2, the SEAP was determined by using a spectrophotometer at 635 nm.
as §1

Series [1] can be described thus: TLR7/8 agonist PK study in SD rats (i.v.). Conditions: 0.08 mg/kg, plasma; for MTRinf: SD rats, i.v.; for AUC(0-inf) / AUC(0-t) / C0 / MRT last / Vd / clearance / half-life: both, Sprague-Dawley (SD), rat, iv.
Experimental: (§2) SPF SD rats were purchased from BioLASCO Taiwan Co. Ltd. Animals were randomly assigned to five groups with 3 males and 3 females in each group before dosing. The body weight variation of animals used were in an interval within ±20 percent of the mean weight for each gender.
(§3) Blood samples (200-350 μL/time point) were obtained through tail vein at pre-dose and 2 min, 5 min, 15 min, 30 min, 1 hr, 2 hr, 4 hr, 6 hr, 8 hr, 12 hr and 24 hr post dosing. The blood samples were collected into tubes containing K2EDTA and maintained on ice no more than 30 minutes, then centrifuged (1500-1750 xg, 15 min, 2-8° C.) for plasma harvest.
(§4) The study samples were prepared and analyzed in parallel using liquid chromatography-tandem mass spectrometry. In pharmacokinetics evaluation following the determined concentrations in rat plasma, pharmacokinetic parameters were calculated using WinNonlin (Pharsight Corporation, version 6.3) with non-compartmental methods.
For series [2] the following is noted: both, Sprague-Dawley (SD), rat, in vivo, iv, 0.08 mg/kg.
Experimental: as §2, §3, §4
The next series can be described thus: in vivo. The following applies: both, Sprague-Dawley (SD), rat, iv, 0.08 mg/kg.

Experimental for in vivo: as §2, §3, §4

`CC(C)(O)Cn1c(COCC(F)(F)F)nc2c(N)nc3ccccc3c21` [Compound 2]: the concentration for a half-maximal effect (EC50) was 0.0983 µM at hTLR7 and 1.6 µM at hTLR8.
Regarding `CCCCNc1nc(N)c2[nH]c(=O)n(Cc3ccc(C(=O)NCC(=O)O)cc3)c2n1` [CL264, reference compound], on hTLR7, the “TLR7 Agonistic EC50” value was found to be 0.2602 ± 0.0124 mg/L.
In series [1], `CCS(=O)(=O)Cc1nc2c(N)nc3ccccc3c2n1CC(C)(C)O` [Compound 6] gave an MTRinf of 1.71 ± 0.22 h, an area under the curve AUC(0-inf) of 0.0828 ± 0.00829 µg·h/mL, an exposure AUC(0-t) of 0.0816 ± 0.00849 µg·h/mL and a C0 of 0.224 ± 0.0539 µg/mL. In series [1], the mean residence time MRT last is 1.28 ± 0.19 h, the distribution volume (Vd) stood at 1.82 L/kg, the clearance was 1.02 L/h/kg and the half-life is 6.46 ± 1.01 h.
With `CCSCc1nc2c(N)nc3ccccc3c2n1CC(C)(C)O` [Compound 4], in series [1], the MTRinf stood at 3.87 ± 1.20 h, the AUC(0-inf) was 0.0662 ± 0.00481 µg·h/mL, the area under the curve AUC(0-t) is 0.0625 ± 0.00449 µg·h/mL and the C0 was determined as 0.258 ± 0.0476 µg/mL. In series [1], this compound had a mean residence time (MRT last) of 1.87 ± 0.16 h, a distribution volume (Vd) of 4.67 L/kg, a clearance of 1.3 L/h/kg and a half-life of 8.46 ± 1.72 h.
For `CC(C)(O)Cn1c(COC2CC2)nc2c(N)nc3ccccc3c21` [Compound 3], the concentration giving a half-maximal response (EC50) at hTLR7 was 0.124 µM. Besides, at hTLR8, the EC50 is 1.58 µM. Also, in series [1], the MTRinf was found to be 4.90 ± 0.87 h, the AUC(0-inf) stood at 0.124 ± 0.00996 µg·h/mL, the exposure AUC(0-t) is 0.118 ± 0.00892 µg·h/mL and the C0 is 0.237 ± 0.0442 µg/mL. In series [1], the MRT last came out at 3.15 ± 0.18 h, the volume of distribution (Vd) amounted to 3.13 L/kg, the clearance is 0.713 L/h/kg and the half-life is 7.53 ± 1.03 h.
Compound `CCOCc1nc2c(N)nc3ccccc3c2n1CC(C)(C)O` [Resiquimod] showed an MTRinf in series [2] of 3.87 ± 1.20 h. In “in vivo”, this compound showed an AUC(0-inf) of 0.0662 ± 0.00481 µg·h/mL, an area under the curve AUC(0-t) of 0.0625 ± 0.00449 µg·h/mL, a C0 of 0.258 ± 0.0476 µg/mL and a mean residence time MRT last of 1.87 ± 0.16 h. In the series “in vivo”, the Vd came out at 4.67 L/kg, the clearance is 1.3 L/h/kg and the half-life is 8.46 ± 1.72 h.

By EC50 is commonly meant the midpoint of the concentration-response curve. One may read the AUC(0-inf) as the area under the concentration-time curve extrapolated to infinity. A low value points to low exposure. A word on the AUC(0-t): it is exposure summed from dosing to a finite time, without extrapolation to infinity. A lower AUC(0-t) goes with less exposure. One may read the MRT last as a mean duration of stay, worked out from the concentration-time curve. Usually Vd stands for a proportionality between amount in the body and measured concentration, not a real space. A lower Vd goes with little distribution into tissue. The clearance is the volume of plasma or blood freed of the substance per unit of time. A word on the half-life: it is how long it takes for the measured level to halve.
